Each structure is given as a SMILES string. ≈ marks a conversion by molar mass, not a printed value. Entries after “also recorded” stand apart in the source; their conditions may differ. Where a name gives a salt, the structure may show the parent alone. Bounds are passed on as bounds.

In general, MIC refers to the lowest concentration that inhibits growth of the organism. A word on the solubility: it is the concentration that dissolves in the medium under given conditions.

One data set concerns Slc:ddY mice. The data set is described as follows: Central toxicity after cisternal administration, alone or combined with biphenylacetic acid. In kind it is in vivo. The conditions noted are these: 5 μg/mouse. The protocol:
Slc:ddY mice (male; 3 weeks old) were used in groups of ten. Compound (1) was dissolved in distilled water in order to prepare injections, and the resultant solution was cisternally administered in a volume of […]. To the members of the group where compound (1) and biphenylacetic acid were used in combination, biphenylacetic acid (400 mg/kg) was perorally administered first, and 30 minutes following the administration, compound (1) was cisternally administered in a manner similar to that employed for the single use of compound (1).

For a further data set, the system named is E. coli, NIHJ. Description: Antibacterial activity (MIC), Japanese Society of Chemotherapy standard method. In kind it is cell-based. The note with it: Escherichia coli. The protocol: (§1) Antibacterial activity was investigated by comparing compound (1) with comparative compounds B and C (see next page). This test was performed according to the standard method recommended by Japanese Society of Chemotherapy.

Another data set has as its system Pr. vulgaris, 08601. The description is as above. In kind it is cell-based. The note with it: Proteus vulgaris. The protocol: as §1
The next data set concerns Ps. aeruginosa, 32104. The description is as above. The class given is cell-based. The conditions noted are these: Pseudomonas aeruginosa. The protocol: as §1
Another data set relates to Ps. aeruginosa, 32121. Described as above. The class given is cell-based. The conditions noted are these: Pseudomonas aeruginosa. The protocol: as §1
The subject of the next data set is S. aureus, 209P. Described as above. In kind it is cell-based. The note with it: Staphylococcus aureus. The protocol:
as §1

The test system of a further data set is S. epidermidis, 56500. Described as above. The conditions noted are these: Staphylococcus epidermidis. The class given is cell-based. The protocol: as §1
The next data set deals with Ser. marcescens, 10100. The data set is described as above. In kind it is cell-based. The conditions noted are these: Serratia marcescens. The protocol:
as §1

In data set [1] the test system is Str. faecalis, ATCC 19433. The data set is described as above. The class given is cell-based. The note with it: Enterococcus faecalis, ATCC19433. The protocol:
as §1

Data set [2] in a line: Moisture absorption/desorption (moisture absorption analyzer, weight change at 5-95% RH). The conditions noted are these: 25° C., relative humidity 5-95% RH; monohydrochloride monohydrate. In kind it is physicochemical. The protocol: Moisture absorption/desorption of compound (1) was investigated by using samples each weighing approximately 10 mg and a moisture absorption analyzer manufactured by VTI (model SGA-100). The measurement was performed at 25° C., and the relative humidity was changed in the range of 5% to 95% at intervals of 5% or 10%. When the weight change of a sample is 0.03% or less within 30 minutes, the sample is considered to be in a state of equilibrium, and in this test, the longest equilibrium time was set to be 180 minutes. The weight change of each sample at different relative humidities was determined.

The nature of another data set: Solubility in water. In kind it is physicochemical. From the text:
Solubility of compound (1) in water was investigated.

Data set [3] can be described thus: Storage stability for one week (heat, humidity, light), residual amount by liquid chromatography. The class given is physicochemical. The protocol: Compound (1) (1.5 mg) was stored for one week under the following conditions: (1) in a sealed bottle at 70° C., (2) in an open-air state at 50° C., 75% RH (NaCl), or (3) irradiation with light at 100,000 lx·h (2,500 lx×40 h). Subsequently, the residual amount of compound (1) was quantitatively determined by means of liquid chromatography.

Data set [4] deals with arthrodial cartilage of young beagles. The data set is described as follows: Articular toxicity in young beagles, peroral for eight days. In kind it is in vivo. The conditions noted are these: 7.5 mg/kg, 15 mg/kg and 30 mg/kg. From the text: Groups of young beagles (male; 3-4 months old), each group consisting of 3 dogs, were used in the test. Compound (1) was perorally administered to each dog for eight days. Thereafter, important diarthroses were pathologically examined. […] Thus, articular toxicity of compound (1) is quite weak and insignificant, proving that compound (1) is a very safe compound.

In another data set the test system is Balb/c mice. Description: Phototoxicity: intravenous administration, then UV-A exposure. In kind it is in vivo. The conditions noted are these: intravenous 100 mg/kg, UV-A 20 J/cm^2 for four hours. The protocol:
Groups of Balb/c mice (female; 5 weeks old), each group consisting of 5-6 mice, were used in the test. After compound (1) was intravenously administered to each mouse, the mouse was exposed to long-wavelength UV light (UV-A) (20 J/cm^2) for four hours. Thereafter, the auricle was visually observed for 96 hours. Subsequently the mouse was sacrificed for examination of the tissue. […] Thus, compound (1) is a very safe compound, being free from phototoxicity, which is often observed with quinolone-based antibacterial agents.

The next data set relates to pneumococcus SPI-13. The data set is described as follows: Therapeutic effect on mouse pneumonia model with pneumococcus of low penicillin sensitivity. In kind it is in vivo. The note with it: CBA/J mice. The protocol:
Groups of CBA/J mice, each group consisting of 5 mice, were used in the test. The mice were nasally infected with pneumococcus SPI-13 at 5.3×10^6 CFU/mouse. Compound (1) was subcutaneously administered to each mouse at doses of 7.5 mg/kg, 15 mg/kg, or 30 mg/kg, for three consecutive days from the day following infection, twice a day at an interval of 6 hours. The efficacy of compound (1) was assessed by counting the number of the intrapulmonary bacteria on the day following the final administration.

For data set [5], the system named is methicillin-resistant Staphylococcus aureus (MRSA) strain 7866. The data set is described as follows: Infection-preventing effect on mouse sepsis model (MRSA). In kind it is in vivo. The conditions noted are these: Slc:ddY mice, intraperitoneal MRSA 7866 1.07×10^8 CFU/mouse, single tail vein injection. The protocol:
(§2) Groups of Slc:ddY mice, each group consisting of 7 mice, were used in the test. The mice were intraperitoneally inoculated with methicillin-resistant Staphylococcus aureus (MRSA) strain 7866 (1.07×10^8 CFU/mouse) or E. coli strain E77156 (8.08×10^7 CFU/mouse). Compound (1) was given as a single injection into the tail vein of each mouse immediately after infection. On the basis of the survival count on day 7 after infection, 50% efficacy was calculated using the probit method, to thereby evaluate the efficacy.

In another data set the test system is E. coli strain E77156. Description: Infection-preventing effect on mouse sepsis model (E. coli). In kind it is in vivo. The conditions noted are these: Slc:ddY mice, intraperitoneal E. coli E77156 8.08×10^7 CFU/mouse, single tail vein injection. The protocol: as §2
Data set [6] in a line: Stability of acid addition salts of compound (1a) under various levels of humidity. The conditions noted are these: high-humidity conditions.
Setting [7] is: combined: biphenylacetic acid 400 mg/kg perorally 30 minutes before cisternal administration.
[8] abbreviates: solo cisternal administration, groups of ten.

For the compound `COc1c(N2C[C@@H](N)[C@@H](C)C2)c(F)cc2c(=O)c(C(=O)O)cn([C@@H]3C[C@@H]3F)c12` [Comparative Compound A, reference compound], the Death result with Slc:ddY mice (setting [7]) is reported as “two”; in the data set with Slc:ddY mice (setting [8]) it was “one”. Besides, the Spasm result in the data set with Slc:ddY mice (setting [8]) was “two”.

Turning to `CCOc1c(N2C[C@@H](N)C3(CC3)C2)c(F)cc2c(=O)c(C(=O)O)cn([C@@H]3C[C@@H]3F)c12` [Comparative Compound B], the minimum inhibitory concentration (MIC) in the data set with E. coli, NIHJ stood at 0.006 µg/mL (≈ 0.0143 µM); against Pr. vulgaris, 08601 it was 0.05 µg/mL (≈ 0.119 µM); against Ps. aeruginosa, 32104, 0.39 µg/mL (≈ 0.93 µM); in the data set with Ps. aeruginosa, 32121, 0.2 µg/mL (≈ 0.477 µM); in the data set on S. aureus, 209P it was 0.025 µg/mL (≈ 0.0596 µM); in the data set with S. epidermidis, 56500, 0.1 µg/mL (≈ 0.238 µM). Besides, the MIC with Ser. marcescens, 10100 was found to be 0.2 µg/mL (≈ 0.477 µM); in data set [1], 0.2 µg/mL (≈ 0.477 µM).

On to `CCOc1c(N2CC(C)C(N)C2)c(F)cc2c(=O)c(C(=O)O)cn([C@@H]3C[C@@H]3F)c12` (stereo partly shown) [Comparative Compound C], for which the MIC against E. coli, NIHJ was found to be 0.025 µg/mL (≈ 0.0614 µM); in the data set with Pr. vulgaris, 08601, 0.05 µg/mL (≈ 0.123 µM); with Ps. aeruginosa, 32104, 0.78 µg/mL (≈ 1.91 µM); with Ps. aeruginosa, 32121, 0.39 µg/mL (≈ 0.957 µM); against S. aureus, 209P, 0.05 µg/mL (≈ 0.123 µM); in the data set with S. epidermidis, 56500 it was 0.2 µg/mL (≈ 0.491 µM). In addition, the MIC with Ser. marcescens, 10100 was 0.2 µg/mL (≈ 0.491 µM); in [1] it was 0.39 µg/mL (≈ 0.957 µM).

Turning to `COc1c(N2C[C@@H](N)C3(CC3)C2)c(F)cc2c(=O)c(C(=O)O)cn([C@@H]3C[C@@H]3F)c12` [Compound (1), (−)-7-[(7S)-7-amino-5-azaspiro[2.4]heptan-5-yl]-6-fluoro-1-[(1R, 2S)-2-fluoro-1-cyclopropyl]-1,4-dihydro-8-methoxy-4-oxo-3-quinolinecarboxylic acid monohydrochloride monohydrate], the “Moisture absorption/desorption (weight change)” value in [2] is on record as “neither absorbing or desorbing moisture; also recorded: do not absorb or desorb moisture”. The same compound gave a solubility in the data set “Solubility in water” of at least 100 mg/mL. Also, the “Stability when exposed to light, compared with compound No. 26bb” value in data set [3] (light 100,000 lx·h (2,500 lx×40 h)) is “superior to that of compound No. 26bb”. Also, the “Stability (residual amount by liquid chromatography)” value in data set [3] (one week: sealed bottle 70° C., open 50° C., 75% RH, light 100,000 lx·h) is on record as “remained stable, not undergoing any decomposition”. For the same compound, the Death result with Slc:ddY mice (setting [7]) and in the data set with Slc:ddY mice (setting [8]) was “neither spasm nor death” throughout. The Spasm entry in the data set with Slc:ddY mice (setting [7]) and in the data set on Slc:ddY mice (setting [8]) was “neither spasm nor death” each time. Besides, the “Formation of blebs or erosions in arthrodial cartilage” value in [4] is listed as “not at all observed”. The “Phototoxicity: abnormality of auricle (visual observation 96 hours, tissue examination)” value with Balb/c mice is given as “no abnormality was observed”. Further, the “Number of intrapulmonary bacteria” value in the data set with pneumococcus SPI-13 (subcutaneous 7.5 mg/kg twice a day for three days) was “approximately half that of the control”; in the data set on pneumococcus SPI-13 (subcutaneous 15 mg/kg twice a day for three days), “below the detection limit”; with pneumococcus SPI-13 (subcutaneous 30 mg/kg twice a day for three days) it was “below the detection limit”. Besides, the “50% efficacy (probit method, survival count on day 7)” value in data set [5] worked out at 3.34 mg/kg; with E. coli strain E77156, 0.57 mg/kg. For the same compound, the MIC was at most 0.003 µg/mL in the data set with E. coli, NIHJ; 0.012 µg/mL against Pr. vulgaris, 08601; 0.2 µg/mL in the data set with Ps. aeruginosa, 32104; 0.05 µg/mL in the data set on Ps. aeruginosa, 32121; 0.006 µg/mL in the data set on S. aureus, 209P; 0.05 µg/mL in the data set with S. epidermidis, 56500. Besides, the MIC against Ser. marcescens, 10100 worked out at 0.05 µg/mL; in [1] it was 0.1 µg/mL.

As for `COc1c(N2C[C@@H](N)C3(CC3)C2)c(F)cc2c(=O)c(C(=O)O)cn([C@@H]3C[C@@H]3F)c12.CS(=O)(=O)O` [methanesulfonic acid salt, Methanesulfonic Acid Salt of (−)-7-{(7S)-7-amino-5-azaspiro[2.4]heptan-5-yl}-6-fluoro-1-[(1R, 2S)-2-fluoro-1-cyclopropyl]-1,4-dihydro-8-methoxy-4-oxo-3-quinolinecarboxylic acid], the “Stability under various levels of humidity” value in [6] is listed as “tendency toward moisture absorption”.
